Results taken from US11357748B2, “Methods for treating mendelian disorders of the epigenetic machinery” (THE JOHNS HOPKINS UNIVERSITY, priority 2014, dated 2022).
“Also recorded” adds a separate entry of the source.

Key:
[1] = tested on: H3K4 trimethylation machinery (H3K4me3 indicator); assay: H3K4 trimethylation (H3K4me3) indicator reporter allele, FACS; format: cell-based
Text: (§1) An H3K4 trimethylation reporter was also created (FIG. 5B). This reporter is based on the H3 tail on one end and the TBP associated factor III (TAFIII) […] on the other end; the TAFIII […] only identifies and binds to trimethylated K4 on H3. When the H3K4 site gets trimethylated, the TAFIII […] can bind to the modified H3 tail and bring the two parts of the separated GFP in close proximity. The activity of the epigenetic modification system can be quantified through fluorescence.
(§2) Epigenetic reporter alleles were synthesized (OriGene, Rockville, Md.) using published sequences for component elements (Baird et al. (1999) Proc. Natl. Acad. Sci. 96:11241-6; Souslova et al. (2007) BMC Biotechnol. 7:37). Single nucleotide mutations were created using the QuickChange Lightening kit (Agilent Technologies Inc, Santa Clara, Calif.). […] FACS data were analyzed using FlowJo (Tree Star Inc, Ashland, Oreg.). […]
(§3) Epigenetic reporter systems were created that monitor either H4 acetylation or H3K4 trimethylation machinery activity in an effort to determine whether there is an ongoing activity deficiency in cells from Kmt2d^+/βGeo mice (FIG. 18A). Both reporter alleles encode halves of green fluorescent protein separated by a flexible linker region (Baird et al. (1999) Proc. Natl. Acad. Sci. 96: 11241-6) with a histone tail and a histone reader at the N- and C-termini, respectively. […]

[2] = tested on: H3K4 trimethylation activity in Kmt2d+/βGeo MEFs; assay: H3K4me3 indicator in murine embryonic fibroblasts (MEFs) from Kmt2d+/βGeo and Kmt2d+/+ mice; format: cell-based, mouse; conditions: FIG. 18H
Text: as §1
as §2, with “Calif.). For H4ac indicator, K5R, K8R, K12R, K16R and K20R (MUT indicator) were introduced. For H3K4me3 indicator, K4Q and D890A/W891A and M882A (three separate constructs) were introduced.” for “Calif.).”
as §3, with “respectively. When the histone tail corresponding to either H4 or H3 is modified by acetylation or methylation, respectively, GFP structure and function are reconstituted, as detected by a fluorescent readout (FIG. 18B). The acetyl reporter protein quantifies the activity of the acetylation machinery (acetylation of H4 specifically at sites K5, K8, K12, and K16) and comprises an H4 tail (residues 1-30) on one end and a TATA binding protein (TBP)-associated factor II (TAFII) bromodomain on the other end (FIG. 18A).” for “respectively.”

[3] = tested on: Klf10 expression; assay: Real-time PCR of Kmt2d target gene Klf10 in spleen cells; format: in vivo, mouse; conditions: AR-42 treatment (10 mg/kg/day); FIG. 26
Procedure: Real-time PCR was performed using Kmt2d-specific probes for exons 20 and 52 (Mm_02600438 and Mm_01717664, respectively) from TaqMan® Gene Expression Assays (Life Technologies, Carlsbad, Calif.). For a comparison of transfection efficiencies for indicator constructs in transient transfection studies, real-time PCR was performed using SYBR Green Real-Time PCR Master Mix (Life Technologies, Carlsbad, Calif.) and primers IND-F-([…]; SEQ ID NO: 5) and IND-R-([…]; SEQ ID NO: 6) that are specific for the H3K4 methylation indicator. For expression analysis for KMT2D target gene KLF10, real-time PCR was performed using Klfl0-specific expression assay (Mm00449812_m1) from TaqMan® Gene Expression Assays (Life Technologies, Carlsbad, Calif.).

SMILES: CC(C)[C@H](C(=O)Nc1ccc(C(=O)NO)cc1)c1ccccc1 [AR-42, (S)—N-hydroxy-4-(3-methyl-2-phenylbutanamido)benzamide]
- H3K4me3 indicator response to increasing levels of drug ([1]; FIG. 18F): dose dependent response
- cell numbers ([1]; at higher doses, FIG. 18F (red line)): decreased cell numbers
- H3K4 trimethylation activity in Kmt2d+/βGeo cells upon treatment ([2]; Kmt2d+/βGeo MEFs, 22A, 23): enhanced
- H3K4me3 indicator activity in MEFs ([2]; both genotypes (Kmt2d+/+ and Kmt2d+/βGeo)): dose-dependent response
- Klf10 expression in spleen cells of Kmt2d+/βGeo mice [3]: normalization of expression of Klf10; also recorded: normalized
